# Measurements taken from US8192962B2, “Processes for detecting toxic substances” (Daikin Industries, Ltd., priority 2001, dated 2012).
# System: Energy system protein genes
# Test: DNA chip mRNA expression in yeast, energy system protein genes (Table 4)
# Format: cell-based, Saccharomyces cerevisiae S288C
# Method: Yeast (Saccharomyces cerevisiae S288C (α SUC2mal mel gap2 CUP1)) were incubated at 25° C. on YPD medium (yeast extract 1%, polypepton 2%, glucose 2%). One of toxic chemical substances was added to the cells at logarithmic growth phase, and the cells were further incubated for two hours. Cells were cultured without any chemical substance in the same condition, and were used as control. Concentrations of the chemical substances were defined to inhibit the growth of the yeast but not lead to death.
# After completion of the incubation, the culture was centrifuged to collect the cells. To the cells, sodium acetate buffer (50 mM sodium acetate, 10 mM EDTA, 1% SDS) was added, and the mixture was shaken at 65° C. for five minutes, followed by returning to room temperature, and obtaining the supernatant, of which the procedures were repeated two times. To the supernatant, ½ amount of a solution of phenol/chloroform was added, and the mixture was centrifuged to give a supernatant, which was added with an equal amount of chloroform, and the mixture was centrifuged to give a supernatant. To the supernatant, an equal amount of isopropanol containing 0.3 M sodium acetate was added, and the mixture was allowed to stand at room temperature for 30 minutes, after which the mixture was centrifuged to give a sediment of the whole RNAs. Seventy % ethanol was added to the sediment, and the mixture was again centrifuged to give a sediment, which was then dried and dissolved in water. mRNA was isolated from the whole RNAs as followings. In view of the fact that a poly A chain is attached to the 3′ terminus of mRNA, a polynucleotide having a poly T structure which was immobilized on the surface of latex beads was used to trap the mRNA, and then the mRNA was washed and eluted with spine column (Oligotex-dT30<Super>mRNA Purification Kit, Takara). Reverse transcription of the mRNA was conducted with a reverse transcriptase (Super Script II Reverse Transcriptase; catalogue No. 18064-014, GibcoBRL) using fluorescence-labeled nucleotides to give cDNAs that were introduced with Cy3-dUTP or Cy5-dUTP during the reverse transcription.
# The labeled cDNAs were dissolved in TE buffer (10mM Tris-HCl/1 mM EDTA, pH8.0), and the solution was dropped on the DNA chip containing the whole genes of yeast (DNA Chip Research Inc. Japan) so that the cDNAs were hybridized on the DNA chip at 65° C. for over 12 hours. The fluoresces intensity of the DNA chip was read with a scanner, and the ratio relative to the fluorescence intensity resulting from the absence of chemical substance was estimated as the following, which is shown in Tables 1 to 9: […]
smiles,measurement,setting,value
"CCCCCCCCCCCCc1ccc(S(=O)(=O)[O-])cc1.[Na+] [(17), sodium dodecylbenzosulfonate]",The level of expressed mRNA in the presence of chemical substance/The level of expressed mRNA in the absence of chemical substance,yeast gene YAL060W,1.1
same,The level of expressed mRNA in the presence of chemical substance/The level of expressed mRNA in the absence of chemical substance,"yeast gene YBL058W, cells incubated two hours with the chemical substance",1.0
same,The level of expressed mRNA in the presence of chemical substance/The level of expressed mRNA in the absence of chemical substance,"yeast gene YBL099W, cells incubated two hours with the chemical substance",0.7
same,The level of expressed mRNA in the presence of chemical substance/The level of expressed mRNA in the absence of chemical substance,"yeast gene YBR001C, cells incubated two hours with the chemical substance",1.0
same,The level of expressed mRNA in the presence of chemical substance/The level of expressed mRNA in the absence of chemical substance,"yeast gene YBR185C, cells incubated two hours with the chemical substance",0.8
same,The level of expressed mRNA in the presence of chemical substance/The level of expressed mRNA in the absence of chemical substance,"yeast gene YBR221C, cells incubated two hours with the chemical substance",0.9
same,The level of expressed mRNA in the presence of chemical substance/The level of expressed mRNA in the absence of chemical substance,yeast gene YCL040W,1.4
same,The level of expressed mRNA in the presence of chemical substance/The level of expressed mRNA in the absence of chemical substance,yeast gene YCR012W,0.8
same,The level of expressed mRNA in the presence of chemical substance/The level of expressed mRNA in the absence of chemical substance,"yeast gene YCR046C, cells incubated two hours with the chemical substance",1.3
same,The level of expressed mRNA in the presence of chemical substance/The level of expressed mRNA in the absence of chemical substance,"yeast gene YCR105W, cells incubated two hours with the chemical substance",1.3
same,The level of expressed mRNA in the presence of chemical substance/The level of expressed mRNA in the absence of chemical substance,yeast gene YDL021W,1.9
same,The level of expressed mRNA in the presence of chemical substance/The level of expressed mRNA in the absence of chemical substance,"yeast gene YDL067C, cells incubated two hours with the chemical substance",1.2
same,The level of expressed mRNA in the presence of chemical substance/The level of expressed mRNA in the absence of chemical substance,"yeast gene YDL078C, cells incubated two hours with the chemical substance",1.1
same,The level of expressed mRNA in the presence of chemical substance/The level of expressed mRNA in the absence of chemical substance,"yeast gene YDL107W, cells incubated two hours with the chemical substance",1.1
same,The level of expressed mRNA in the presence of chemical substance/The level of expressed mRNA in the absence of chemical substance,yeast gene YDL174C,2.2
same,The level of expressed mRNA in the presence of chemical substance/The level of expressed mRNA in the absence of chemical substance,"yeast gene YDL181W, cells incubated two hours with the chemical substance",1.5
same,The level of expressed mRNA in the presence of chemical substance/The level of expressed mRNA in the absence of chemical substance,yeast gene YDR001C,1.1
same,The level of expressed mRNA in the presence of chemical substance/The level of expressed mRNA in the absence of chemical substance,"yeast gene YDR050C, cells incubated two hours with the chemical substance",1.1
same,The level of expressed mRNA in the presence of chemical substance/The level of expressed mRNA in the absence of chemical substance,"yeast gene YDR079W, cells incubated two hours with the chemical substance",1.1
same,The level of expressed mRNA in the presence of chemical substance/The level of expressed mRNA in the absence of chemical substance,"yeast gene YDR178W, cells incubated two hours with the chemical substance",1.2
same,The level of expressed mRNA in the presence of chemical substance/The level of expressed mRNA in the absence of chemical substance,yeast gene YDR231C,1.2
same,The level of expressed mRNA in the presence of chemical substance/The level of expressed mRNA in the absence of chemical substance,"yeast gene YDR298C, cells incubated two hours with the chemical substance",1.1
same,The level of expressed mRNA in the presence of chemical substance/The level of expressed mRNA in the absence of chemical substance,"yeast gene YDR377W, cells incubated two hours with the chemical substance",1.2
same,The level of expressed mRNA in the presence of chemical substance/The level of expressed mRNA in the absence of chemical substance,"yeast gene YDR529C, cells incubated two hours with the chemical substance",1.0
same,The level of expressed mRNA in the presence of chemical substance/The level of expressed mRNA in the absence of chemical substance,"yeast gene YEL024W, cells incubated two hours with the chemical substance",1.1
same,The level of expressed mRNA in the presence of chemical substance/The level of expressed mRNA in the absence of chemical substance,"yeast gene YEL039C, cells incubated two hours with the chemical substance",0.7
same,The level of expressed mRNA in the presence of chemical substance/The level of expressed mRNA in the absence of chemical substance,yeast gene YER178W,1.1
same,The level of expressed mRNA in the presence of chemical substance/The level of expressed mRNA in the absence of chemical substance,yeast gene YFL057C,1.6
same,The level of expressed mRNA in the presence of chemical substance/The level of expressed mRNA in the absence of chemical substance,yeast gene YFR053C,1.4
same,The level of expressed mRNA in the presence of chemical substance/The level of expressed mRNA in the absence of chemical substance,"yeast gene YGL018C, cells incubated two hours with the chemical substance",0.8
same,The level of expressed mRNA in the presence of chemical substance/The level of expressed mRNA in the absence of chemical substance,yeast gene YGL062W,1.1
same,The level of expressed mRNA in the presence of chemical substance/The level of expressed mRNA in the absence of chemical substance,"yeast gene YGL187C, cells incubated two hours with the chemical substance",0.9
same,The level of expressed mRNA in the presence of chemical substance/The level of expressed mRNA in the absence of chemical substance,"yeast gene YGL191W, cells incubated two hours with the chemical substance",1.2
same,The level of expressed mRNA in the presence of chemical substance/The level of expressed mRNA in the absence of chemical substance,"yeast gene YGL205W, cells incubated two hours with the chemical substance",3.9
same,The level of expressed mRNA in the presence of chemical substance/The level of expressed mRNA in the absence of chemical substance,"yeast gene YGL256W, cells incubated two hours with the chemical substance",0.7
same,The level of expressed mRNA in the presence of chemical substance/The level of expressed mRNA in the absence of chemical substance,yeast gene YGR043C,1.6
same,The level of expressed mRNA in the presence of chemical substance/The level of expressed mRNA in the absence of chemical substance,"yeast gene YGR062C, cells incubated two hours with the chemical substance, 25° C., YPD medium",0.9
same,The level of expressed mRNA in the presence of chemical substance/The level of expressed mRNA in the absence of chemical substance,"yeast gene YGR087C, cells incubated two hours with the chemical substance",1.0
same,The level of expressed mRNA in the presence of chemical substance/The level of expressed mRNA in the absence of chemical substance,"yeast gene YGR174C, cells incubated two hours with the chemical substance",1.3
same,The level of expressed mRNA in the presence of chemical substance/The level of expressed mRNA in the absence of chemical substance,yeast gene YGR192C,1.1
same,The level of expressed mRNA in the presence of chemical substance/The level of expressed mRNA in the absence of chemical substance,yeast gene YGR244C,1.9
same,The level of expressed mRNA in the presence of chemical substance/The level of expressed mRNA in the absence of chemical substance,yeast gene YGR254W,1.3
same,The level of expressed mRNA in the presence of chemical substance/The level of expressed mRNA in the absence of chemical substance,yeast gene YHR179W,1.9
same,The level of expressed mRNA in the presence of chemical substance/The level of expressed mRNA in the absence of chemical substance,yeast gene YIL160C,2.4
same,The level of expressed mRNA in the presence of chemical substance/The level of expressed mRNA in the absence of chemical substance,"yeast gene YIR031C, cells incubated two hours with the chemical substance",0.9
same,The level of expressed mRNA in the presence of chemical substance/The level of expressed mRNA in the absence of chemical substance,yeast gene YJL052W,1.2
same,The level of expressed mRNA in the presence of chemical substance/The level of expressed mRNA in the absence of chemical substance,"yeast gene YJL121C, cells incubated two hours with the chemical substance",1.1
same,The level of expressed mRNA in the presence of chemical substance/The level of expressed mRNA in the absence of chemical substance,"yeast gene YJL166W, cells incubated two hours with the chemical substance",1.7
same,The level of expressed mRNA in the presence of chemical substance/The level of expressed mRNA in the absence of chemical substance,"yeast gene YJL216C, cells incubated two hours with the chemical substance",1.2
same,The level of expressed mRNA in the presence of chemical substance/The level of expressed mRNA in the absence of chemical substance,yeast gene YJR009C,1.1
